Patent US10729710B2, “Catecholamine prodrugs for use in the treatment of Parkinson's disease” (H. Lundbeck A/S, priority 2017, dated 2020)
Where a name gives a salt, the structure may show the parent alone.

How the values were obtained:
male CD rats = assay: Rat locomotor activity (hyperactivity) assay, open field; type: in vivo
Description: In total, 206 male CD rats (Charles River, Germany) weighing 200-250 grams (165-190 grams upon arrival) were used in the study. Animals were housed at a standard temperature (22±1° C.) and in a light-controlled environment (lights on from 7 am to […]) with ad libitum access to food and water. The experiment described below was performed in accordance with the standard operating procedures of Charles River Discovery Research Services Finland Ltd. and in accordance with the national Animal Experiment Board of Finland (Eläinkoelautakunta, ELLA) authority on animal testing.
The test device is a square Plexiglass-arena (measuring 40×40×40 cm), in which the movement paths of the rats are recorded by an activity monitor (Med. Associates Inc.). Before the test period is initiated, rats are habituated to their test cage for 60 minutes. Upon completion of habituation, animals were treated with either compound or vehicle and placed back into the open field apparatus. The main test parameter measured is ambulatory distance (recorded in 5 minute segments). Overall time of measurement after receiving initial treatment was 360 minutes. Total follow up period in the study was 420 min, including 60 min of habituation.

hepatocytes from rat = assay: Conversion to compound (I) in rat hepatocytes; type: in vitro ADME; details: 1 μg/mL, 37° C., 0.25-60 minutes, FIG. 7a
Description: (§1) The cell concentration at incubation was 1×10^6 viable cells/mL. The incubations were performed in glass tubes at 37° C. with a total incubation volume of 3.5 mL and with duplicate incubations for each test item. The 3.5 mL of hepatocyte suspension was equilibrated for 10 minutes in a water bath set to 37° C. where after the incubations were initiated by adding 3.5 μL of a stock solution of the test item in DMSO (Dimethyl sulfoxide) and gently inverting the tubes. The final solvent concentration in the incubations was 0.1% DMSO. Samples of 600 μL were withdrawn from the incubations at the pre-determined time points of 0.25, 5, 15, 30 and 60 minutes after ensuring homogeneity of hepatocyte suspensions. The withdrawn volume was added to 1 mL Nunc cryo tubes on wet ice containing 60 μL of ice cold ascorbic acid (100 mg/mL) and 30 μL of ice cold 100 mM saccharic acid 1.4-lactone in 0.5 M citric acid. The tubes were mixed and 35 μL of a solution of ice cold 20% formic acid was added. The tubes were mixed thoroughly and stored at −80° C. awaiting analysis. Analysis method and Instrumentation used for analysis of (I) from dosing (Id-ia), (Id-ib), (Id-iia) and (Id-iib), were the one described in Examples 4 and 5 below in the section “Instrumentation used for analysis of compound (I) from dosing of compounds (Ic), (Id-ia), (Id-ib), (Id-iia), (Id-iib), (Id-iab) and (Id-iiab).”
(§2) Analysis method and Instrumentation used for analysis of (I) from dosing (Id-iab) and (Id-iiab) consisted of mixing equal aliquots of the samples and precipitation solution (acetonitrile (MeCN) with 10% methanol (MeOH) and 1% formic acid), followed by centrifugation at 4° C. at 16000 g for 10 minutes. Supernatants were collected and analysed by LC-MS/MS. Mass spectrometer: Waters Acquity—Waters Xevo TQ-MS. Analytical column: Acquity UPLC HSS T3, 100×2.1 mm, 1.8 μm. Mobile phase A: 0.2% formic acid in water. Mobile phase B: 0.2% formic acid in acetonitrile. Gradient run from 95/5% to 60/40 in 5 min. Flow rate 0.3 mL/min. MRM monitoring of (I) in the study samples and in the analytical standards.

hepatocytes from human = assay: Conversion to compound (I) in human hepatocytes; type: in vitro ADME; details: 1 μg/mL, 37° C., 0.25-60 minutes, FIG. 7b
Description: as §1, §2

[1] = Conversion to compound (I) in fresh human blood; type: in vitro ADME; details: fresh blood 37° C., 1 μg/mL, 0-60 minutes, FIG. 8b
Description: Conversion of (Id-ia), (Id-ib), (Id-iia) and (Id-iib) in human blood (average of 3 donors) and rat blood (average of 45 donors) to (I) was shown in fresh blood at 37° C. spiked with 1 μg/mL of (Id-ia), (Id-ib), (Id-iia) and (Id-iib) separately, (I) was measured at 0, 5, 15, 30 and 60 minutes in isolated plasma. Analysis method and Instrumentation as described in Examples 4 and 5 below in the section “Instrumentation used for analysis of compound (I) from dosing of compounds (Ic), (Id-ia), (Id-ib), (Id-iia), (Id-iib), (Id-iab) and (Id-iiab).”

Row | SMILES | relationship between behavioral effect and plasma concentrations (male CD rats; (Id-ia) 100 μg/kg p.o. (FIG. 5), apomorphine 3 mg/kg s.c. (FIG. 6)) | start of locomotor activity effect post-administration (male CD rats; (Id-ia) 10 to 300 μg/kg p.o., apomorphine 3 mg/kg s.c., pramipexole 0.3 mg/kg s.c.) [h] | total distance travelled vs vehicle (male CD rats; FIG. 4, (Id-ia) p.o., apomorphine 3 mg/kg s.c., pramipexole 0.3 mg/kg s.c.) | time until locomotor effect is gone (male CD rats; apomorphine: post administration, pramipexole: after appearance of effect, (Id-ia): recording ended at 415-minute time point) | conversion to compound (I) in rat hepatocytes (hepatocytes from rat) | conversion to compound (I) in human hepatocytes (hepatocytes from human) | conversion to compound (I) in human blood [1]
1 | CCCN1CCC[C@@H]2Cc3c(ccc(O)c3O[C@@H]3O[C@H](C(=O)O)[C@@H](O)[C@H](O)[C@H]3O)C[C@H]21 [(Id-ia), (2S,3S,4S,5R,6S)-3,4,5-trihydroxy-6-(((4aR,10aR)-7-hydroxy-1-propyl-1,2,3,4,4a,5,10,10a-octahydrobenzo[g]quinolin-6-yl)oxy)tetrahydro-2H-pyran-2-carboxylic acid] | correlate with the plasma concentrations of compound (I) | ~2 | significantly increased activity | lasting until the end of recording | time dependent conversion to compound (I) | time dependent conversion to compound (I) | time dependent conversion to compound (I)
2 | CCCN1CCC[C@@H]2Cc3c(ccc(O)c3OS(=O)(=O)O)C[C@H]21 [(Id-iia), (4aR,10aR)-7-hydroxy-1-propyl-1,2,3,4,4a,5,10,10a-octahydrobenzo[g]quinolin-6-yl hydrogen sulfate] | – | – | – | – | time dependent conversion to compound (I) | time dependent conversion to compound (I) | time dependent conversion to compound (I)
